According to US11129839B2, “Minocycline compounds for biodefense” (priority 2015, dated 2021):
≈ marks a conversion by molar mass, not a printed value. Where two headings read alike, the source gives them in different places.

What was measured:
B. mallei [1] = assay: microbe, parasite or virus in culture; format: cell-based
Y. pestis [2] = assay: microbe, parasite or virus in culture; format: cell-based
Y. pestis (C092) = tested on: Y. pestis (C092); set-up: species or system BALB/c mice; conditions: mouse, in vivo; for PD50: ip
B. anthracis [3] = assay: microbe, parasite or virus in culture; format: cell-based
B. anthracis AMES strain = tested on: B. anthracis AMES strain; set-up: species or system BALB/c mice; conditions: mouse, in vivo; for PD50: ip
Legionella pneumophila = assay: microbe, parasite or virus in culture; format: cell-based
B. mallei [4] = conditions: cited from earlier work
B. pseudomallei [5] = conditions: cited from earlier work
Y. pestis [6] = conditions: cited from earlier work
B. anthracis [7] = conditions: cited from earlier work
Chlamydia pneumonia = assay: microbe, parasite or virus in culture; format: cell-based
E. faecalis = assay: animal or person; format: in vivo, Mice; conditions: Enterococcus faecalis, in Mus musculus, read-out: PD50/ED50
Bacteroides fragilis = conditions: cited from earlier work
[8] = tested on: Enterococcus faecium (VSE); conditions: cited from earlier work
Streptococcus agalactiae = conditions: cited from earlier work
[9] = tested on: Streptococcus pneumoniae (PRSP); conditions: cited from earlier work
[10] = tested on: Staphylococcus aureus (MSSA); conditions: cited from earlier work
F. tularensis = assay: microbe, parasite or virus in culture; format: cell-based
E. coli = assay: animal or person; format: in vivo, Mice; conditions: Escherichia coli, in Mus musculus, read-out: PD50/ED50
Enterobacter cloacae = conditions: cited from earlier work
Klebsiella pneumonia = conditions: cited from earlier work
[11] = tested on: Coagulase-negative staphylococci; conditions: cited from earlier work
[12] = tested on: Staphylococcus aureus (MRSA); conditions: cited from earlier work
Burkholderia cepacia = conditions: cited from earlier work
Proteus mirabilis = conditions: cited from earlier work
Escherichia coli = conditions: cited from earlier work
Acinetobacter baumannii = conditions: cited from earlier work
[13] = tested on: bacteria isolated from clinical specimens; format: cell-based
H. influenza = assay: animal or person; format: in vivo, Mice; conditions: Mus musculus, read-out: PD50/ED50
[14] = tested on: Enterococcus facecalis (VRE); conditions: cited from earlier work
Clostridium difficile = conditions: cited from earlier work
Enterobacter aerogenes = conditions: cited from earlier work
Haemophilus influenza = conditions: cited from earlier work
Streptococcus pyogenes = conditions: cited from earlier work
[15] = tested on: Enterococcus faecalis (VSE); conditions: cited from earlier work
Shigella spp. = conditions: cited from earlier work
B. pseudomallei [16] = assay: microbe, parasite or virus in culture; format: cell-based; conditions: Burkholderia pseudomallei
Streptococcus pneumonia = conditions: cited from earlier work
Clostridium perfringens = conditions: cited from earlier work
Pseudomonas aeruginosa = conditions: cited from earlier work
Salmonella spp. = conditions: cited from earlier work
B. mallei (China 7) = tested on: B. mallei (China 7); set-up: species or system BALB/c mice; conditions: mouse, in vivo
[17] = tested on: Enterococcus faecium (VRE); conditions: cited from earlier work
Moraxella catarrhalis = conditions: cited from earlier work

CC[C@H]1OC(=O)[C@H](C)[C@@H](O[C@H]2C[C@@](C)(OC)[C@@H](O)[C@H](C)O2)[C@H](C)[C@@H](O[C@@H]2O[C@H](C)C[C@H](N(C)C)[C@H]2O)[C@](C)(O)C[C@@H](C)CN(C)[C@H](C)[C@@H](O)[C@]1(C)O [azithromycin, reference compound] showed an MIC (B. mallei [1]; Burkholderia mallei) of 0.5 µg/mL (≈ 0.668 µM).
For C[C@H]1c2cccc(O)c2C(=O)C2=C(O)[C@]3(O)C(=O)C(C(N)=O)=C(O)[C@@H](N(C)C)[C@@H]3[C@@H](O)[C@@H]21 [Doxycycline, reference compound], the MIC (Y. pestis [2]; Yersinia pestis) was 0.5 µg/mL (≈ 1.13 µM), the MIC (B. mallei [1]; Burkholderia mallei) was 0.06 µg/mL (≈ 0.135 µM) and the PD50 (Y. pestis (C092)) was 29.7 (range of 20.7 to 38.8) mg/kg. For the same compound, the MIC (B. anthracis [3]; Bacillus anthracis) was 0.03 µg/mL (≈ 0.0675 µM), the PD50 (B. anthracis AMES strain) was 2.0 (range of 1.4 to 2.6) mg/kg and the MIC50 (Legionella pneumophila) was 1 µg/mL (≈ 2.25 µM). For the same compound, the MIC90 (Legionella pneumophila) was 1 µg/mL (≈ 2.25 µM).
For O=C(O)c1cn(C2CC2)c2cc(N3CCNCC3)c(F)cc2c1=O [Ciprofloxacin], the MIC50 (B. mallei [4]) is given as 0.5 µg/mL (≈ 1.51 µM), the MIC90 (B. mallei [4]) is given as 1 µg/mL (≈ 3.02 µM) and the MIC range (B. mallei [4]) is given as 0.0625 to 1 µg/mL. The MIC50 (B. pseudomallei [5]) was 2 µg/mL (≈ 6.04 µM), the MIC90 (B. pseudomallei [5]) was 4 µg/mL (≈ 12.1 µM) and the MIC range (B. pseudomallei [5]) was 0.5 to 32 µg/mL. The MIC90 (Y. pestis [6]) was 0.03125 µg/mL (≈ 0.0943 µM), the MIC range (Y. pestis [6]) was 0.0039 to 0.0625 µg/mL and the MIC50 (B. anthracis [7]) was 0.0625 µg/mL (≈ 0.189 µM). The MIC90 (B. anthracis [7]) was 0.125 µg/mL (≈ 0.377 µM) and the MIC range (B. anthracis [7]) was 0.03125 to .25 µg/mL.
CN(C)c1cc(CNCC(C)(C)C)c(O)c2c1C[C@H]1C[C@H]3[C@H](N(C)C)C(O)=C(C(N)=O)C(=O)[C@@]3(O)C(O)=C1C2=O [Compound A, 9-[(2,2-dimethyl-propylamino)-methyl]minocycline] gave an MIC50 (Chlamydia pneumonia) of 0.25 µg/mL (≈ 0.449 µM), an MIC90 (Chlamydia pneumonia) of 0.25 µg/mL (≈ 0.449 µM) and an ED50 (E. faecalis) of 4.5 mg/kg. The MIC50 (Bacteroides fragilis) was 1/8 μg/mL, the MIC90 (Bacteroides fragilis) was 4/16 μg/mL and the MIC50 [8] was 0.12/0.12 μg/mL. The MIC90 [8] was 0.12/16^ μg/mL, the MIC50 (Streptococcus agalactiae) was 0.25/8 μg/mL and the MIC90 (Streptococcus agalactiae) was 0.25/16^ μg/mL. For the same compound, the MIC50 [9] was 0.12/8 μg/mL, the MIC90 [9] was 0.12/8 μg/mL and the MIC50 [10] was 0.25/0.12 μg/mL. For the same compound, the MIC90 [10] was 0.25/0.25 μg/mL, the MIC range (F. tularensis) was 0.5 to 2 µg/mL and the “in vitro activity (in words)” value (F. tularensis) was “significant activity”. For the same compound, the MIC50 (F. tularensis; Francisella tularensis) was 1 µg/mL (≈ 1.8 µM), the MIC90 (F. tularensis; Francisella tularensis) was 2 µg/mL (≈ 3.59 µM) and the ED50 (E. coli) was 4.3 mg/kg. For the same compound, the MIC range (Y. pestis [2]) was 0.125 to 2 µg/mL, the “in vitro activity (in words)” value (Y. pestis [2]) was “significant activity” and the MIC (Y. pestis [2]; Yersinia pestis) was 1 µg/mL (≈ 1.8 µM). For the same compound, the MIC50 (Y. pestis [2]; Yersinia pestis) was 1 µg/mL (≈ 1.8 µM), the MIC90 (Y. pestis [2]; Yersinia pestis) was 1 µg/mL (≈ 1.8 µM) and the MIC50 (Enterobacter cloacae) was 2/4 μg/mL. The MIC90 (Enterobacter cloacae) was 16/16 μg/mL, the MIC50 (Klebsiella pneumonia) was 2/2 μg/mL and the MIC90 (Klebsiella pneumonia) was 8/>32 μg/mL. For the same compound, the MIC range (B. mallei [1]) was less than 0.03125 to 0.5 µg/mL, the “in vitro activity (in words)” value (B. mallei [1]) was “highly active” and the MIC (B. mallei [1]; Burkholderia mallei) was 0.25 µg/mL (≈ 0.449 µM). For the same compound, the MIC50 (B. mallei [1]; Burkholderia mallei) was 0.125 µg/mL (≈ 0.225 µM), the MIC90 (B. mallei [1]; Burkholderia mallei) was 0.25 µg/mL (≈ 0.449 µM) and the MIC50 [11] was 0.25/0.25 μg/mL. The MIC90 [11] was 1/2 μg/mL, the MIC50 [12] was 0.25/0.12 μg/mL and the MIC90 [12] was 0.25/2 μg/mL. For the same compound, the MIC50 (Burkholderia cepacia) was 2/4 μg/mL, the MIC90 (Burkholderia cepacia) was 64/>32 μg/mL and the MIC50 (Proteus mirabilis) was 16/16 μg/mL. For the same compound, the MIC90 (Proteus mirabilis) was 32/>32 μg/mL, the MIC50 (Escherichia coli) was 2/8 μg/mL and the MIC90 (Escherichia coli) was 4/>32 μg/mL. The MIC50 (Acinetobacter baumannii) was 0.25/0.25 μg/mL, the MIC90 (Acinetobacter baumannii) was 4/2 μg/mL and the “effect of serum or lung surfactant on in vitro activity” value [13] was “not affected by serum or lung surfactant”. For the same compound, the “percent survival (comparison in words, FIG. 1)” value (Y. pestis (C092); 40 mg/kg) was “more effective as doxycycline at 40 mg/kg and is at least as effective or ciprofloxacin at 15 mg/kg”, the PD50 (Y. pestis (C092)) was 23.5 (range of 20.1 to 27.0 mg/kg) and the MIC range (B. anthracis [3]) was less than 0.03125 to 0.0625 µg/mL. For the same compound, the “in vitro activity (in words)” value (B. anthracis [3]) was “highly active”, the MIC (B. anthracis [3]; Bacillus anthracis) was less than 0.03 µg/mL and the MIC50 (B. anthracis [3]; Bacillus anthracis) was 0.0312 µg/mL (≈ 0.0561 µM). The MIC90 (B. anthracis [3]; Bacillus anthracis) was 0.0625 µg/mL (≈ 0.112 µM), the ED50 (H. influenza) was 4.7 mg/kg and the MIC50 [14] was 0.12/0.25 μg/mL. The MIC90 [14] was 0.25/8 μg/mL, the “percent survival (comparison in words, FIG. 2)” value (B. anthracis AMES strain) was “as effective as doxycycline or ciprofloxacin” and the PD50 (B. anthracis AMES strain) was 0.8 (range of 0.6 to 1.1 mg/kg). The MIC50 (Clostridium difficile) was 0.12/0.03 μg/mL, the MIC90 (Clostridium difficile) was 0.12/1 μg/mL and the MIC50 (Enterobacter aerogenes) was 2/2 μg/mL. For the same compound, the MIC90 (Enterobacter aerogenes) was 4/4 μg/mL, the MIC50 (Legionella pneumophila) was 0.25 µg/mL (≈ 0.449 µM) and the MIC90 (Legionella pneumophila) was 0.25 µg/mL (≈ 0.449 µM). The MIC50 (Haemophilus influenza) was 0.5/0.5 μg/mL, the MIC90 (Haemophilus influenza) was 1/1 μg/mL and the MIC50 (Streptococcus pyogenes) was 0.12/25^ μg/mL. For the same compound, the MIC90 (Streptococcus pyogenes) was 0.12/0.25 μg/mL, the MIC50 [15] was 0.25/8 μg/mL and the MIC90 [15] was 0.5/8^ μg/mL. The MIC50 (Shigella spp.) was 1/1 μg/mL, the MIC90 (Shigella spp.) was 2/32 μg/mL and the MIC50 (B. pseudomallei [16]) was 64 µg/mL (≈ 115 µM). For the same compound, the MIC90 (B. pseudomallei [16]) was greater than 64 µg/mL, the MIC50 (Streptococcus pneumonia) was 0.12/0.25 μg/mL and the MIC90 (Streptococcus pneumonia) was 0.12/8 μg/mL. For the same compound, the MIC50 (Clostridium perfringens) was 1/2 μg/mL, the MIC90 (Clostridium perfringens) was 4/8 μg/mL and the MIC50 (Pseudomonas aeruginosa) was 32/32 μg/mL. For the same compound, the MIC90 (Pseudomonas aeruginosa) was 64/32 μg/mL, the MIC50 (Salmonella spp.) was 2/4 μg/mL and the MIC90 (Salmonella spp.) was 8/32 μg/mL. For the same compound, the “percent survival (in words, FIG. 3)” value (B. mallei (China 7)) was “as effective as doxycycline or azithromycin”, the MIC50 [17] was 0.12/8 μg/mL and the MIC90 [17] was 0.12/8 μg/mL. For the same compound, the MIC50 (Moraxella catarrhalis) was 0.25/0.25 μg/mL and the MIC90 (Moraxella catarrhalis) was 0.25/0.25 μg/mL.
